Measurements reported in PMC11345766, “Computational Design of Pore-Forming Peptides with Potent Antimicrobial and Anticancer Activities” (Journal of Medicinal Chemistry, 2024).
Ends that are not written are not given here.

Experiments:
E. coli AIC221 = details: E. coli / AIC221 / Prot. d; Prot. d
E. coli AIC222 (COL) = details: E. coli / AIC222 / COL / Prot. d; Prot. d
E. coli ATCC 11775 = details: E. coli / ATCC 11775 / Prot. d; Prot. d
[1] = system: E. coli E1098 (GEN, AMI, IMI, MER); details: E. coli / E1098 / GEN, AMI, IMI, MER / Prot. c; Prot. c
[2] = system: A. baumannii Z13 (GEN, AMI, IMI, MER); details: A. baumannii / Z13 / GEN, AMI, IMI, MER / Prot. c; Prot. c
[3] = system: K. pneumoniae 4371 (GEN, AMI, IMI, MER); details: K. pneumoniae / 4371 / GEN, AMI, IMI, MER / Prot. c; Prot. c
HCT-15 = test: cells; assay type: cell-based, human; details: 72 h
Experimental: (§1) The CellTiter-Glo luminescent cell viability assay examining the impact of peptides on 22 different human cell lines was purchased from Reaction Biology Europe GmbH (Germany). Cells were cultured in different media (Table S1), seeded into a flat-bottom 96-well plate, and incubated at 37 °C. After overnight incubation, test compounds were added with 1% PBS/0.3% Tween 20 and the reference compound bortezomib was added with 0.1% DMSO. Negative controls were solvents alone, and positive control was 10 μM staurosporine. After 72 h of incubation at 37 °C, 5 or 10% CO2 (dependent on the medium), and 1 h equilibration at room temperature, well plates were treated with CellTiter-Glo reagent (Promega) for an hour and luminescence was measured using a luminometer.
(§2) Table S1. In vitro activity against 22 different human cancer cell lines.
(§3) Sr. Cancer Activity (in M)
(§4) no. Cell line type Culture medium
(§5) The effect of investigated compounds on the proliferation of 22 different human cell lines is
(§6) Twenty of these 22 cell lines represent specific cancer types and 2 were non-cancerous. Peptide
(§7) Anticancer drug bortezomib was used as the […]

MDA MB 435 = test: cells; assay type: cell-based, human; details: 72 h
Experimental: as §1, §2, §3, §4, §5, §6, §7

OVCAR-3 = test: cells; assay type: cell-based, human; details: 72 h
Experimental: as §1, §2, §3, §4, §5, §6, §7

RPMI 8226 = test: cells; assay type: cell-based, human; details: 72 h
Experimental: as §1, §2, §3, §4, §5, §6, §7

[4] = system: normal B and T lymphocytes, granulocytes, and monocytes in whole blood; test: Viability by flow cytometric staining in whole blood; assay type: cell-based, human; details: up to the highest tested concentration of 50 μM; 16 h
Experimental: Finally, we tested the effect of LP1 and LP40 on healthy primary cells in whole blood from a healthy donor (Figure S11).
The whole blood was seeded in a 96-well plate at 200 μL/well and treated with peptides for 16 h. The samples were then stained with anti-CD3 (FITC, Sony), anti-CD14 (APC-Cy7, Sony), and anti-CD19 (PE, Beckman Coulter) antibodies and incubated for 20 min at room temperature in the dark. The cells were then incubated with red blood cell lysis buffer for 10 min at room temperature, centrifuged, resuspended in PBS containing SYTOX Blue Dead Cell Stain (Thermo Fisher Scientific) and measured using a FACSVerse flow cytometer (BD Biosciences).

E. coli (E1098) = details: E1098, 18 h
[5] = system: human red blood cells (HRBCs); details: read-out: Hemolysis toxicity (IC50); 1 h incubation
Experimental: To investigate the toxicity for normal human cells, all peptides were first screened against human red blood cells (HRBCs) using a hemolysis assay (Table 2 and Figure S4).
Hemolysis toxicity was tested against HRBCs. Blood samples, collected from the university hospital, were centrifuged twice at 700 × g and once at 1000 × g for 8 min at 4 °C to obtain erythrocyte pellets. Supernatants were always discarded, and pellets were resuspended in PBS (the same as the antimicrobial susceptibility assay). The final RBC suspension was 0.5% (v/v). Dilution series was prepared for concentrations 50 to 0.1 μM in a V-bottom 96-well plate, followed by the addition of RBC suspension. […] After 1 h of incubation at 37 °C, the well plate was centrifuged at 1000 × g for 10 min at 4 °C. The supernatant, collected in a flat-bottom well plate, was measured for OD415 using Tecan Microplate Reader Infinite F500.

[6] = system: panel of 20 different human cancer and 2 noncancerous cell lines; assay type: cell-based; details: 72 h
Experimental: First, we tested LP40 and LP1 for anticancer activity at the physiological pH. The peptides were screened against a panel of 20 different human cancer and 2 noncancerous cell lines using a CellTiter-Glo luminescent cell viability assay (Figure 6b). […] For few exceptional cell lines, the activity of LP40 was below 10 μM.
as §1

MCF-7 cells = test: Immunoblotting of cleaved PARP and caspase-3; assay type: cell-based, human; details: 1 h treatment; media of different pH
Experimental: Furthermore, immunoblotting detection of cleaved PARP and caspase-3 markers confirmed the induction of apoptosis in MCF-7 cells by the peptides (Figure S10c).
MCF-7 cells were seeded at 2.5 × 10^5 cells/well in a 24-well plate 1 day before the experiment. Cells were treated with either peptides or PBS alone (negative control) and cultured in different media for 1 h. Cells were lysed using a buffer consisting of 1% SDS, 50 mM Tris–HCl (pH 6.8), and 10% glycerol with phosphatase and protease inhibitors. The protein concentration was determined by using the DC Protein Assay (Bio-Rad). Proteins were separated by SDS-PAGE and transferred to the PVDF membrane with a 0.45 μm pore size. The membranes were incubated with primary antibodies to detect cleaved PARP (no. 5625, 1:1000, Cell Signaling), total PARP (no. 9542, 1:2000, Cell Signaling), cleaved caspase-3 (no. 9664, 1:1000, Cell Signaling), or β-actin (no. 4970, 1:2000; Cell Signaling). Secondary HRP-linked antirabbit antibody (1:2000, Cell Signaling) was used to detect primary antibodies. Signal was detected using Clarity Western ECL Substrate (BioRad) and UVITEC Alliance (Uvitec).

With “KKKKLKKILKKLFQFINQLDNQLQDIKKKK-NH2 [LP18]” the MIC (E. coli AIC221) was 1.6 µM, the MIC (E. coli AIC222 (COL)) was 1.6 µM and the MIC (E. coli ATCC 11775) was 1.6 µM. It also gave an MIC [1] of 2 µM.

With “KKKKLKKILKKLFQFINQLDNQLQDIKQNK-NH2 [LP1]” the MIC [2] was 4 µM, the MIC [3] was 16 µM and the IC50 (HCT-15) was 4.7 µM. It also gave an IC50 (MDA MB 435) of 1.4 µM, an IC50 (OVCAR-3) of 4.9 µM and an IC50 (RPMI 8226) of 4.4 µM. For the same substance, the “Effect on healthy primary cells in whole blood” value [4] was “no apparent deleterious effect” and the MIC (E. coli (E1098)) was 1 µM.

For “H-HHHHLKKILKKLFQFINQLDNQLQDIHHHH-OH [LP40]”, the IC50 [5] was over 50 µM, the IC50 [6] was over 100 µM and the IC50 (HCT-15) was 7.1 µM. It also gave an IC50 (MDA MB 435) of 190 µM, an IC50 (OVCAR-3) of 9 µM and an IC50 (RPMI 8226) of 5.6 µM. The “Cleaved PARP and caspase-3 (apoptosis)” value (MCF-7 cells) was “higher at pH 6”.
